Assay results from ChEMBL document CHEMBL4396958, “Anti-inflammatory phenylpropanoid glycosides from the fruits of Forsythia suspensa” (Bioorg Med Chem Lett, 2019).

Key:
Macrophage [1] = assay: Inhibition of TNFalpha expression in LPS-induced macrophages (unknown origin) at 10 uM incubated for 24 hrs by ELISA relative to control; type: functional
Macrophage [2] = assay: Inhibition of TNFalpha expression in LPS-induced macrophages (unknown origin) incubated for 24 hrs by ELISA; type: functional, cell-based

SMILES	inhibition at 10 µM (Macrophage [1])	IC50 (Macrophage [2])
O=C(/C=C/c1ccc(O)cc1)OC[C@H]1O[C@@H](Oc2ccc(/C=C/C(=O)OC[C@H]3OC(O)[C@H](O)[C@@H](O)[C@@H]3O)cc2O)[C@H](O)[C@@H](O)[C@@H]1O (some centres undefined)	98.3%	1050 nM
C[C@@H]1C[C@H]2[C@@H]3CCC4=CC(=O)C=C[C@]4(C)[C@@]3(F)[C@@H](O)C[C@]2(C)[C@@]1(O)C(=O)CO [DEXAMETHASONE]	82.5%	134 nM
